Reference: ChEMBL document CHEMBL6096690, “Synthesis and Biological Evaluation of Peripheral HTR2A Antagonists for Colorectal Cancer” (J Med Chem, 2025)
The source made the active and inactive calls. No cut-off for these calls is given here.

Tests used:
CCD-18Co = test: Cytotoxicity against human CCD-18Co cells assessed as inhibition of cell proliferation incubated for 24 to 48 hrs by CCK-8 assay; assay type: toxicity, cell-based; details: dose lower 1.5 µM, time lower 24 hrs, dose upper 12.5 µM, time upper 48 hrs
[1] = AUCinfinity in male mouse at 2 mg/kg, iv; assay type: ADME, organism-based; details: in vivo
RKO = test: Antiproliferative activity against human RKO cells assessed as inhibition of cell proliferation at 1.5 to 12.5 uM by CCK-8 assay; assay type: functional, cell-based; details: dose 1.5-12.5 µM, time 24-48 hrs
HCT-116 [2] = test: Induction of apoptosis in human HCT-116 cells assessed as increase in cleaved PARP expression incubated for 24 hrs by Western blotting analysis; assay type: functional, cell-based; details: dose 5-10 µM
[3] = AUCt in male mouse at 2 mg/kg, iv; assay type: ADME, organism-based; details: in vivo
[4] = Drug concentration in male ICR mouse plasma at 10 mg/kg, ip measured after 3 hr; assay type: ADME, organism-based
SW-620 [5] = test: Induction of apoptosis in human SW620 cells assessed as upregulation of acetylated P53 protein expression at 5 to 10 uM incubated for 24 hrs by Western blotting analysis; assay type: functional, cell-based; details: dose 5-10 µM
SW-620 [6] = test: Antitumor activity against human SW620 cells xenografted in male athymic nude BALB/c mouse assessed as tumor growth inhibition at 50 mg/kg, ip administered once daily relative to control; assay type: functional; details: read-out: TGI
hERG (KCNH2) = hERG (KCNH2) (Homo sapiens, UniProt Q12809); test: Inhibition of hERG at 10 uM relative to control; assay type: toxicity
HCT-116 [7] = test: Antitumor activity against human HCT-116 cells expressing firefly luciferase xenografted in male athymic nude BALB/c mouse assessed as tumor growth inhibition at 50 mg/kg, ip administered once daily by bioluminescence imaging analysis relative to control; assay type: functional; details: read-out: TGI
CYP1A2 = target: T1, CYP1A2 (Homo sapiens, UniProt P05177); test: Inhibition of CYP1A2 (unknown origin) at 10 uM relative to control; assay type: ADME
T1 sequence (P05177 whole entry): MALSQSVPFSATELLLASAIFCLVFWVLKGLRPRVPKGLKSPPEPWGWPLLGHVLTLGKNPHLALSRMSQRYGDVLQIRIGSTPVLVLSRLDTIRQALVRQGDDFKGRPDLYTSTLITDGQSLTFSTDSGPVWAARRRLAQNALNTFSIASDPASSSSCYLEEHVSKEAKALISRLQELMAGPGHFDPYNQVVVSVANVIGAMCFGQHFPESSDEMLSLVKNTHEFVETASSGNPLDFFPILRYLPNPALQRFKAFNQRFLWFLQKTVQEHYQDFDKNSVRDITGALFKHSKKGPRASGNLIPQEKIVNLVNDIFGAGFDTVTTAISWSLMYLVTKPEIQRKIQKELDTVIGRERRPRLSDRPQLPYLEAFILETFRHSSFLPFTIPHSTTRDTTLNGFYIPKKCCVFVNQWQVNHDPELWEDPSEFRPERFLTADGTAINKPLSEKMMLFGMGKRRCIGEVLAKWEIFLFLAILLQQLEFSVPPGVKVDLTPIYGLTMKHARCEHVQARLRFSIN

CYP2C9 = CYP2C9 (Homo sapiens, UniProt P11712); test: Inhibition of CYP2C9 (unknown origin) at 10 uM relative to control; assay type: ADME
[8] = target: 5-hydroxytryptamine receptor 2B (Homo sapiens, UniProt P41595); test: Inhibition of 5HTR2B (unknown origin)
SW480 = test: Antiproliferative activity against human SW480 cells assessed as inhibition of cell proliferation at 1.5 to 12.5 uM by CCK-8 assay; assay type: functional, cell-based; details: dose 1.5-12.5 µM, time 24-48 hrs
CYP3A4 = CYP3A4 (Homo sapiens, UniProt P08684); test: Inhibition of CYP3A4 (unknown origin) at 10 uM relative to control; assay type: ADME
HCT-116 [9] = test: Antitumor activity against human HCT-116 cells xenografted in male athymic nude BALB/c mouse assessed as tumor growth inhibition at 1 mg/kg, ip measured after 19 days relative to control; assay type: functional; details: HCT-116, 456 h, time 19 day, read-out: TGI
HCT-116 [10] = test: Induction of cell cycle arrest in human HCT-116 cells assessed as increase in sub-G1 phase cells incubated for 24 hrs by PI/RNase staining based flow cytometric analysis; assay type: functional; details: dose 5-10 µM
[11] = target: 5-hydroxytryptamine receptor 5A (Homo sapiens) (UniProt P47898); test: Inhibition of 5HTR5A (unknown origin) at 1 uM relative to control
SW-620 [12] = test: Antiproliferative activity against human SW620 cells assessed as inhibition of cell proliferation at 1.5 to 12.5 uM by CCK-8 assay; assay type: functional, cell-based; details: dose 1.5-12.5 µM, time 24-48 hrs
[13] = target: T2, 5-hydroxytryptamine receptor 2C (Homo sapiens) (UniProt P28335); test: Inhibition of 5HTR2C (unknown origin) at 1 uM relative to control
T2 sequence (whole entry): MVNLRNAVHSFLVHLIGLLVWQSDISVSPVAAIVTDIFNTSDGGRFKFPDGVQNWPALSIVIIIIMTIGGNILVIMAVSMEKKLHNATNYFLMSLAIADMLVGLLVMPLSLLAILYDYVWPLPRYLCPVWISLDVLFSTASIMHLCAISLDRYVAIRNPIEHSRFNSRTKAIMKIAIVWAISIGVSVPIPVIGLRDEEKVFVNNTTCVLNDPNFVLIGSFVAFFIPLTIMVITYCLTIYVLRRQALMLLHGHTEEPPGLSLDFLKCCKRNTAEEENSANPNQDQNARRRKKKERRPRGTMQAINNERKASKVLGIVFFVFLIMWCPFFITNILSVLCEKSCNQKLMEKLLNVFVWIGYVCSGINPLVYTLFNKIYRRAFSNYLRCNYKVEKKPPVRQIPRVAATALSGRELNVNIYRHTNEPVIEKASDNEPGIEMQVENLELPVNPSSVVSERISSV

HCT-116 [14] = test: Induction of apoptosis in human HCT-116 cells assessed as upregulation of acetylated P53 protein expression at 5 to 10 uM incubated for 24 hrs by Western blotting analysis; assay type: functional, cell-based; details: dose 5-10 µM
[15] = target: 5-hydroxytryptamine receptor 7 (Homo sapiens) (UniProt P34969); test: Inhibition of 5HTR7 (unknown origin) at 1 uM relative to control
SW-620 [16] = test: Induction of apoptosis in human SW620 cells assessed as increase in cleaved PARP expression incubated for 24 hrs by Western blotting analysis; assay type: functional, cell-based; details: dose 5-10 µM
SW-620 [17] = test: Induction of cell cycle arrest in human SW620 cells assessed as increase in sub-G1 phase cells incubated for 24 hrs by PI/RNase staining based flow cytometric analysis; assay type: functional; details: dose 5-10 µM
SW-620 [18] = test: Induction of cell cycle arrest at sub-G1 phase in human SW620 cells assessed as increase in p21 protein expression at 5 to 10 uM incubated for 24 hrs by Western blotting analysis; assay type: functional, cell-based; details: dose 5-10 µM
CYP2D6 = CYP2D6 (Homo sapiens, UniProt P10635); test: Inhibition of CYP2D6 (unknown origin) at 10 uM relative to control; assay type: ADME
[19] = Clearance in male mouse at 2 mg/kg, iv; assay type: ADME, organism-based; details: in vivo
[20] = Drug concentration in male ICR mouse brain at 10 mg/kg, ip measured after 1 hr; assay type: ADME, organism-based; details: read-out: Ct
SW-620 [21] = test: Induction of apoptosis in human SW620 cells assessed as upregulation of total P53 protein expression at 5 to 10 uM incubated for 24 hrs by Western blotting analysis; assay type: functional, cell-based; details: dose 5-10 µM

CYP2D6, sequence (P10635 whole entry): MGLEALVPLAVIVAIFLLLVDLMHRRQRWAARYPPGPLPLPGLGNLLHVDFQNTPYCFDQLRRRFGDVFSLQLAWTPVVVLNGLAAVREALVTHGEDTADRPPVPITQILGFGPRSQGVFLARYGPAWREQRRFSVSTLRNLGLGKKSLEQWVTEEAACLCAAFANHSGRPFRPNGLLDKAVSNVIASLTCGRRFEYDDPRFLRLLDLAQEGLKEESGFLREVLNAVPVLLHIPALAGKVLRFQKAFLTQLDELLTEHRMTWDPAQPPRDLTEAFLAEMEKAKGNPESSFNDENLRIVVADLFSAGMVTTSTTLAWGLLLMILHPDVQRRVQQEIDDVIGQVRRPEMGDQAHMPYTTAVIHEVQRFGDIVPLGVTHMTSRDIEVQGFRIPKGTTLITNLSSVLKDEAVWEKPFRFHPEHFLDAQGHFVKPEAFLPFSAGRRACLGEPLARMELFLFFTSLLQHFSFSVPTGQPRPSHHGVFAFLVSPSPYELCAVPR
5-hydroxytryptamine receptor 2B, sequence (P41595 whole entry): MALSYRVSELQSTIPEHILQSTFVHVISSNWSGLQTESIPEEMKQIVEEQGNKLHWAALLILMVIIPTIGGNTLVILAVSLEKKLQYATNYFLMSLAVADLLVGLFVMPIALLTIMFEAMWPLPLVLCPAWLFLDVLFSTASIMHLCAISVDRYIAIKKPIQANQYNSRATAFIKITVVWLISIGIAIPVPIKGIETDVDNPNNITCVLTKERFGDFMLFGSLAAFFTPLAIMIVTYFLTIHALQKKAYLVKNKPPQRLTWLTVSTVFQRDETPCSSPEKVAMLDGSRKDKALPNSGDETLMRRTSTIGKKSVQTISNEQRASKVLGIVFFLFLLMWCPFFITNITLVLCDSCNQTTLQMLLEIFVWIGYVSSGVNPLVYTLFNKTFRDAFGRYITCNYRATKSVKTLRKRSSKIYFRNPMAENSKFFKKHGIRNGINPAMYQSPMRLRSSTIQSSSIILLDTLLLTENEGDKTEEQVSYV
5-hydroxytryptamine receptor 5A (Homo sapiens), sequence (P47898 whole entry): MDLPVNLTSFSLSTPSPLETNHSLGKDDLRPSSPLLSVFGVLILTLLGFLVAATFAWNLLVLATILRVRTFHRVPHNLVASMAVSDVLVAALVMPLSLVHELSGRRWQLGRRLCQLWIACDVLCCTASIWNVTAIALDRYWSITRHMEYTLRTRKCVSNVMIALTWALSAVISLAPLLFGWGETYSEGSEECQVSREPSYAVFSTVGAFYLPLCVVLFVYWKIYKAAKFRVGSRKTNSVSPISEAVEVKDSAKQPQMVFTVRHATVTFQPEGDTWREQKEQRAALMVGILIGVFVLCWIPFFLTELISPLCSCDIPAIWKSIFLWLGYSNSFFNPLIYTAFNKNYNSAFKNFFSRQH
CYP2C9, sequence (P11712 whole entry): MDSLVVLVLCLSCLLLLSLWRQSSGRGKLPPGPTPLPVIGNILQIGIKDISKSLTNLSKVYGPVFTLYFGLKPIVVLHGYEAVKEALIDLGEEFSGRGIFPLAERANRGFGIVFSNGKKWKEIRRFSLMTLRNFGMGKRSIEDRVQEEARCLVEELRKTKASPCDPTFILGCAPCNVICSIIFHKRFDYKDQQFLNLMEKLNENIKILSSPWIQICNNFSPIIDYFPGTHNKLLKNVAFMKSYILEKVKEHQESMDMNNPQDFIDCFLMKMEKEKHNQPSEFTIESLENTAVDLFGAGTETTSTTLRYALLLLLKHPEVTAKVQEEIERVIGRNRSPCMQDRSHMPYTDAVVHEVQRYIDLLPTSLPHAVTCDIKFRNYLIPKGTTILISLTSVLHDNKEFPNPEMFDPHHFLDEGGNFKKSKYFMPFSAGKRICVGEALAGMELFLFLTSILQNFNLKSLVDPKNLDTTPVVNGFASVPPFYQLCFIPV
hERG (KCNH2), sequence (Q12809 whole entry): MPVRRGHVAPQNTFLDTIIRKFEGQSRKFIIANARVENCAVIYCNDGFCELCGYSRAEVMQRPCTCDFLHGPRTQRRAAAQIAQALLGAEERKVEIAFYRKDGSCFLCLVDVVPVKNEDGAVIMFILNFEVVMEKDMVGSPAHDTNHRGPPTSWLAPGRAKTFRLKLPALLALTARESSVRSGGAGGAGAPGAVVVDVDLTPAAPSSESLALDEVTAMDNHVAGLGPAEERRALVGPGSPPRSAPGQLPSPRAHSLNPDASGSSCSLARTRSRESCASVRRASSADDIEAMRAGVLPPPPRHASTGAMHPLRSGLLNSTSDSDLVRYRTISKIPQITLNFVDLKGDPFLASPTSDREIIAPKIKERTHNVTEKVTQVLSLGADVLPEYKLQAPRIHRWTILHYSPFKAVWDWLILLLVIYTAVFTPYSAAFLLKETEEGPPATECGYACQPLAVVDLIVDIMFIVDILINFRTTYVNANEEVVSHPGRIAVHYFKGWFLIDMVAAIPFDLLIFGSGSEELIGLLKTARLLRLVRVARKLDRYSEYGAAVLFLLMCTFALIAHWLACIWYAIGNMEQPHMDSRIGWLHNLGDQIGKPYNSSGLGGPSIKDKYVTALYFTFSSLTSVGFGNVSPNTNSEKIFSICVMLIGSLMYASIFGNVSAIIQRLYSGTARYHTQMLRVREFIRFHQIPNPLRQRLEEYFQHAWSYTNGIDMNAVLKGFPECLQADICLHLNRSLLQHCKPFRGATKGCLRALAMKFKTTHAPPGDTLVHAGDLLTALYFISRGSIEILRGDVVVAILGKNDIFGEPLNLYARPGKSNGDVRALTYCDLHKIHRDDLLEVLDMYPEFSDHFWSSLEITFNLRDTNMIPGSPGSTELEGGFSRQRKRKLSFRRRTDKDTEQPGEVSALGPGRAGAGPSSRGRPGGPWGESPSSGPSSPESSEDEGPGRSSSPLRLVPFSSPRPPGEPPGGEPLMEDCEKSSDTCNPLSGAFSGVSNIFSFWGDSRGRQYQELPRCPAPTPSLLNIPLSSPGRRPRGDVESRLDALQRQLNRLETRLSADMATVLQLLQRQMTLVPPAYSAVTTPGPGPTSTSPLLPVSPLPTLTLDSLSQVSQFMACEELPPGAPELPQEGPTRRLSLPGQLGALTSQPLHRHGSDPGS
5-hydroxytryptamine receptor 7 (Homo sapiens), sequence (P34969 whole entry): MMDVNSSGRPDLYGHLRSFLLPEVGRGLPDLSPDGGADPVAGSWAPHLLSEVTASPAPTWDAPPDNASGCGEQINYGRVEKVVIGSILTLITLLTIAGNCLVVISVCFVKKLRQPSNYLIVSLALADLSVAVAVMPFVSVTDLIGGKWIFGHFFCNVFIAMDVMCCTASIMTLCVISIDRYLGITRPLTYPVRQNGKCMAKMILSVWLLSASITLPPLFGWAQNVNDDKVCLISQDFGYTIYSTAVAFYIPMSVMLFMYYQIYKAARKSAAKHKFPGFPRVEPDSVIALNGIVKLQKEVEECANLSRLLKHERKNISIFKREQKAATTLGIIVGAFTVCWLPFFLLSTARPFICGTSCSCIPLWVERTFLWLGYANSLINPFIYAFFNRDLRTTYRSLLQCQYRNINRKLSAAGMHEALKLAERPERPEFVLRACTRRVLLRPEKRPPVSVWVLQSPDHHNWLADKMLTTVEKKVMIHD
CYP3A4, sequence (P08684 whole entry): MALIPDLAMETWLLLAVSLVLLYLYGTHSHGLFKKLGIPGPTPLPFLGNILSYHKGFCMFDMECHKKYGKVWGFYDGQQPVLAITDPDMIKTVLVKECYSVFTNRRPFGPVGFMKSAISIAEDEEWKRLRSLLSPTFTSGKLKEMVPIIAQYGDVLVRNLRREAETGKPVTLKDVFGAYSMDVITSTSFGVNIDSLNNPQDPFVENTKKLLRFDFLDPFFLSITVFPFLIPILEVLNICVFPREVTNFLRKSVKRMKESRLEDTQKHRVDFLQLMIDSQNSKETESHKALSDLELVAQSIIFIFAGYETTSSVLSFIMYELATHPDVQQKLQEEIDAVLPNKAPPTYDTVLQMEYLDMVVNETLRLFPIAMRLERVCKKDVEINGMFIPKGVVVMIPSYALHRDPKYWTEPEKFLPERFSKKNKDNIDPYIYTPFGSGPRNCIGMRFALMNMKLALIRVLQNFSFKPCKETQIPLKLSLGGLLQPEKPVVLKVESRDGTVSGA

Cl.Cl.O=C(NCc1ccc(OCC(O)CN2CCN(c3noc4cc(F)ccc34)CC2)cc1)N(Cc1ccc(F)cc1)C1CCNCC1 (centres undefined)
Activity (CCD-18Co): Dose-dependent-effect | AUC(0-inf) [1]: 500 ng·h/mL | Activity (RKO): Time-dependent-effect | Activity (HCT-116 [2]): Dose-dependent-effect | AUC(0-t) [3]: 300 ng·h/mL | concentration at 3 h [4]: 271 ng/mL | Activity (SW-620 [5]): Active | inhibition in vivo at 50 mg/kg (SW-620 [6]): 46.9% | inhibition at 10 µM (hERG (KCNH2)): 52% | inhibition in vivo at 50 mg/kg (HCT-116 [7]): 76.5% | inhibition at 10 µM (CYP1A2): 4.6% | inhibition at 10 µM (CYP2C9): 5% | IC50 [8]: 621 nM | Activity (SW480): Time-dependent-effect | inhibition at 10 µM (CYP3A4): 9.6% | inhibition in vivo at 1 mg/kg (HCT-116 [9]): 38.8% | Activity (HCT-116 [10]): Dose-dependent-effect | inhibition [11]: 10% | Activity (SW-620 [12]): Time-dependent-effect | inhibition [13]: 44% | Activity (HCT-116 [14]): Active | inhibition [15]: 102% | Activity (SW-620 [16]): Dose-dependent-effect | Activity (SW-620 [17]): Dose-dependent-effect | Activity (SW-620 [18]): Active | inhibition at 10 µM (CYP2D6): 55.1% | clearance [19]: 67.7 mL/min/kg | concentration at 1 h [20]: < 0.5 ng/g | Activity (SW-620 [21]): Active
